Data taken from patent US9796704B2, “Substituted quinazolines as receptor-type kinase inhibitors” (Symphony Evolution, Inc., priority 2002, dated 2017).

Assays:
EGFR = EGFR (Homo sapiens (Human), UniProt P00533); test: EGFR kinase inhibition, luciferase-coupled chemiluminescent assay (LCCA); conditions: read-out: EGFR IC50
EphB4 = EphB4 (Homo sapiens (Human), UniProt P54760); test: EphB4 kinase inhibition, 33P phosphoryl transfer assay (radiometric); assay type: biochemical
Protocol: Phosphorylated substrate products are quantified by scintillation spectrometry.
Kinase activity and compound inhibition are investigated using one or more of the three assay formats described below. The ATP concentrations are selected near its Michaelis-Menten constant (KM) for each individual kinase. Dose-response experiments are performed at ten different inhibitor concentrations in a 384-well plate format. […] These parameters are obtained by nonlinear regression algorithm built into ActivityBase software (available from ID Business Solutions Ltd., of Guildford, Surrey, UK). ^33P Phosphoryl Transfer Assay (Radiometric)
Greiner 384-well white clear bottom high binding plates (available from Greiner Bio-One, Inc., of Longwood, Fla.) are coated with 2 μg/well of protein or peptide substrate in a 50 μL volume overnight at ambient temperature. […] The coating solution is aspirated and the plates are washed once with 50 μL of assay buffer and padded dry. Subsequently compounds and enzymes are mixed with γ ^33P-ATP (3.3 μCi/nmol) in a total volume of 20 uL in suitable assay buffers (see Table 2). For example the final EphB4 reaction solution contains 20 mM TrisHCl, pH 7.5, 10 mM MgCl2, 0.01% Triton X-100, 0.1 mM NaVO3, 5 nM EphB4 enzyme and 5 μM ATP. […] The plates are subsequently washed 6-12 times with PBST or TBS buffer.

EphA2 = EphA2 (Homo sapiens (Human), UniProt P29317); test: EphA2 kinase inhibition, luciferase-coupled chemiluminescent assay (LCCA); conditions: read-out: EphA2 IC50
EphA2, sequence (P29317 598-890): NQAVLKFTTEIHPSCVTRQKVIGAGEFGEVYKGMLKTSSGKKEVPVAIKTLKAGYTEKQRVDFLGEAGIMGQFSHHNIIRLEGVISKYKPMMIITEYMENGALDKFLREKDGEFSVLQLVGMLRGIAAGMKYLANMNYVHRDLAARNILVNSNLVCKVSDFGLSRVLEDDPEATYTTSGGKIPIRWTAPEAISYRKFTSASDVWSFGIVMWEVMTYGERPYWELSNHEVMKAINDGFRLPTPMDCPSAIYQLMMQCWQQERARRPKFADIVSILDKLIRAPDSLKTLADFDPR

EphB4, sequence (P54760 605-890): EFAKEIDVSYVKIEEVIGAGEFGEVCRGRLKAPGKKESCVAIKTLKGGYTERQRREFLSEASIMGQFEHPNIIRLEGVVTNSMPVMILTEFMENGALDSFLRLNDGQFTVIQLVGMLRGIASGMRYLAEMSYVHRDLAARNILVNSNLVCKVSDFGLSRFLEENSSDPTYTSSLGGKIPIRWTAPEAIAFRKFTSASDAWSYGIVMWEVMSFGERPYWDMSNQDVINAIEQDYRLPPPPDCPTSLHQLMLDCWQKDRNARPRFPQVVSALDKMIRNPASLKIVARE
EGFR, sequence (P00533 672-1210): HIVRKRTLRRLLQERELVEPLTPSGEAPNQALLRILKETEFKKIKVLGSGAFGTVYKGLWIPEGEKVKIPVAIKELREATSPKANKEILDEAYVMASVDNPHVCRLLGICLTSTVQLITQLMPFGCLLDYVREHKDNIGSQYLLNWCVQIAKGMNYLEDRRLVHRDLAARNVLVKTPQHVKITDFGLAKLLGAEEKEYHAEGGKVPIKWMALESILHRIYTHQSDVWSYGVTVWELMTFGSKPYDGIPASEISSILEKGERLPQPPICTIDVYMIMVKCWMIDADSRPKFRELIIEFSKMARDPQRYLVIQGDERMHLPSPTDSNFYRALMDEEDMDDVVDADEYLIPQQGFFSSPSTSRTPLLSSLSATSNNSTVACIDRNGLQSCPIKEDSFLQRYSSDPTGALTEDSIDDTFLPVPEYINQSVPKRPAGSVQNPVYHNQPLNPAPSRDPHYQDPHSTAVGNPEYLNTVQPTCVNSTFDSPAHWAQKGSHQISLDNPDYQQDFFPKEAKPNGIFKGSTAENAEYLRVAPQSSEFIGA

Structure (SMILES)	IC50 (EGFR)	IC50 (EphB4)	IC50 (EphA2)
COc1cc2c(Nc3ccc(Cl)c(Cl)c3)ncnc2cc1OC[C@H]1O[C@H](OC)[C@H](O)[C@@H](O)[C@@H]1O (stereo in doubt) [Example 194, methyl 6-O-[4-[(3,4-dichlorophenyl)amino]-6-(methyloxy)quinazolin-7-yl]-alpha-D-glucopyranoside]	< 50 nM	< 50 nM	50 to 1000 nM
COc1cc2c(Nc3cc(Cl)c(Cl)cc3F)ncnc2cc1OC[C@@H]1CO[C@H]2[C@@H]1OC[C@@H]2OC [Example 48, 1,4:3,6-dianhydro-5-deoxy-5-({[4-[(4,5-dichloro-2-fluorophenyl)amino]-6-(methyloxy)quinazolin-7-yl]oxy}methyl)-2-O-methyl-D-glucitol]	< 50 nM	1000 to 20000 nM	1000 to 20000 nM
COc1cc2c(Nc3cccc(Cl)c3F)ncnc2cc1O[C@H]1CO[C@H]2[C@@H]1OC[C@@H]2OC [Example 71, 1,4:3,6-dianhydro-2-O-[4-[(3-chloro-2-fluorophenyl)amino]-6-(methyloxy)quinazolin-7-yl]-5-O-methyl-L-iditol]	< 50 nM	50 to 1000 nM	50 to 1000 nM
COc1cc2c(Nc3ccc(Cl)c(Cl)c3)ncnc2cc1O[C@H]1CO[C@H]2[C@@H]1OC[C@@H]2OC [Example 72, 1,4:3,6-dianhydro-2-O-[4-[(3,4-dichlorophenyl)amino]-6-(methyloxy)quinazolin-7-yl]-5-O-methyl-L-iditol]	< 50 nM	50 to 1000 nM	50 to 1000 nM
CCO[C@H]1CO[C@H]2[C@@H]1OC[C@@H]2Oc1cc2ncnc(Nc3ccc(Br)c(Cl)c3)c2cc1OC [Example 74, 1,4:3,6-dianhydro-2-O-[4-[(4-bromo-3-chlorophenyl)amino]-6-(methyloxy)quinazolin-7-yl]-5-O-ethyl-L-iditol]	< 50 nM	50 to 1000 nM	1000 to 20000 nM
COc1cc2c(Nc3cccc(Br)c3C)ncnc2cc1O[C@H]1CO[C@H]2[C@@H]1OC[C@@H]2OC [Example 75, 1,4:3,6-dianhydro-2-O-[4-[(3-bromo-2-methylphenyl)amino]-6-(methyloxy)quinazolin-7-yl]-5-O-methyl-L-iditol]	< 50 nM	< 50 nM	50 to 1000 nM
COc1cc2c(Nc3cccc(Cl)c3C)ncnc2cc1O[C@H]1CO[C@H]2[C@@H]1OC[C@@H]2OC [Example 76, 1,4:3,6-dianhydro-2-O-[4-[(3-chloro-2-methylphenyl)amino]-6-(methyloxy)quinazolin-7-yl]-5-O-methyl-L-iditol]	< 50 nM	50 to 1000 nM	50 to 1000 nM
COc1cc2c(Nc3ccc(Cl)cc3Cl)ncnc2cc1O[C@@H]1CO[C@@H]2[C@H]1OC[C@H]2F [Example 117, 1,4:3,6-dianhydro-2-deoxy-5-O-[4-[(2,4-dichlorophenyl)amino]-6-(methyloxy)quinazolin-7-yl]-2-fluoro-D-iditol]	< 50 nM	< 50 nM	–
COc1cc2c(Nc3cccc(Br)c3)ncnc2cc1O[C@@H]1CO[C@@H]2[C@H]1OC[C@H]2F [Example 129, 1,4:3,6-dianhydro-5-O-[4-[(3-bromophenyl)amino]-6-(methyloxy)quinazolin-7-yl]-2-deoxy-2-fluoro-D-iditol]	< 50 nM	< 50 nM	–
COc1cc(OC)c(Nc2ncnc3cc(O[C@@H]4CO[C@@H]5[C@H]4OC[C@H]5F)c(OC)cc23)cc1Cl [Example 135, 1,4:3,6-dianhydro-5-O-[4-{[5-chloro-2,4-bis(methyloxy)phenyl]amino}-6-(methyloxy)quinazolin-7-yl]-2-deoxy-2-fluoro-D-iditol]	< 50 nM	< 50 nM	–
COc1cc2c(Nc3ccc(F)c(Cl)c3F)ncnc2cc1O[C@@H]1CO[C@@H]2[C@H]1OC[C@H]2F [Example 137, 1,4:3,6-dianhydro-5-O-[4-[(3-chloro-2,4-difluorophenyl)amino]-6-(methyloxy)quinazolin-7-yl]-2-deoxy-2-fluoro-D-iditol]	< 50 nM	< 50 nM	–
COc1cc2c(Nc3ccc(Cl)c(Cl)c3)ncnc2cc1OCc1nc(CN(C)C)no1 [Example 139, N-(3,4-dichlorophenyl)-7-[({3-[(dimethylamino)methyl]-1,2,4-oxadiazol-5-yl}methyl)oxy]-6-(methyloxy)quinazolin-4-amine]	< 50 nM	50 to 1000 nM	–
COc1cc2c(Nc3ccc(Cl)c(Cl)c3)ncnc2cc1OCc1noc(C2CCNCC2)n1 [Example 141, N-(3,4-dichlorophenyl)-6-(methyloxy)-7-{[(5-piperidin-4-yl-1,2,4-oxadiazol-3-yl)methyl]oxy}quinazolin-4-amine]	< 50 nM	50 to 1000 nM	–
COc1cc2c(Nc3ccc(Cl)c(Cl)c3)ncnc2cc1OCc1noc(C2CCN(C)CC2)n1 [Example 142, N-(3,4-dichlorophenyl)-6-(methyloxy)-7-({[5-(1-methylpiperidin-4-yl)-1,2,4-oxadiazol-3-yl]methyl}oxy)quinazolin-4-amine]	< 50 nM	50 to 1000 nM	–
COc1cc2c(Nc3ccc(Cl)c(Cl)c3)ncnc2cc1OCc1nc(CN2CCOCC2)no1 [Example 143, N-(3,4-dichlorophenyl)-6-(methyloxy)-7-({[3-(morpholin-4-ylmethyl)-1,2,4-oxadiazol-5-yl]methyl}oxy)quinazolin-4-amine]	< 50 nM	50 to 1000 nM	–
COc1cc2c(Nc3ccc(Cl)c(Cl)c3)ncnc2cc1OCc1noc(C2CCCCN2)n1 (stereo not drawn) [Example 145, N-(3,4-dichlorophenyl)-6-(methyloxy)-7-{[(5-piperidin-2-yl-1,2,4-oxadiazol-3-yl)methyl]oxy}quinazolin-4-amine]	< 50 nM	50 to 1000 nM	–
COc1cc2c(Nc3ccc(Cl)c(Cl)c3)ncnc2cc1OCC1CN(Cc2ccccc2)CCO1 (stereo not drawn) [Example 147, N-(3,4-dichlorophenyl)-6-(methyloxy)-7-({[4-(phenylmethyl)morpholin-2-yl]methyl}oxy)quinazolin-4-amine]	< 50 nM	50 to 1000 nM	–
COc1cc2c(Nc3ccc(Cl)c(Cl)c3)ncnc2cc1OCc1noc(C2CCCNC2)n1 (stereo not drawn) [Example 153, N-(3,4-dichlorophenyl)-6-(methyloxy)-7-{[(5-piperidin-3-yl-1,2,4-oxadiazol-3-yl)methyl]oxy}quinazolin-4-amine]	< 50 nM	50 to 1000 nM	–
COc1cc2c(Nc3ccc(Cl)c(Cl)c3)ncnc2cc1OCc1noc(C2CCCN(C)C2)n1 (stereo not drawn) [Example 156, N-(3,4-dichlorophenyl)-6-(methyloxy)-7-({[5-(1-methylpiperidin-3-yl)-1,2,4-oxadiazol-3-yl]methyl}oxy)quinazolin-4-amine]	< 50 nM	50 to 1000 nM	–
COc1cc2c(Nc3ccc(Cl)c(Cl)c3)ncnc2cc1OCc1ccncc1 [Example 172, N-(3,4-dichlorophenyl)-6-(methyloxy)-7-[(pyridin-4-ylmethyl)oxy]quinazolin-4-amine]	< 50 nM	< 50 nM	–
COc1cc2c(Nc3ccc(Cl)c(Cl)c3)ncnc2cc1OCc1cccnc1 [Example 179, N-(3,4-dichlorophenyl)-6-(methyloxy)-7-[(pyridin-3-ylmethyl)oxy]quinazolin-4-amine]	< 50 nM	–	1000 to 20000 nM
COc1cc2c(Nc3ccc(Cl)c(Cl)c3)ncnc2cc1OCc1nc(N2CCNCC2)no1 [Example 217, N-(3,4-dichlorophenyl)-6-(methyloxy)-7-{[(3-piperazin-1-yl-1,2,4-oxadiazol-5-yl)methyl]oxy}quinazolin-4-amine]	–	–	< 50 nM
COc1cc2c(Nc3ccc(Cl)c(Cl)c3)ncnc2cc1OCc1csc(-c2ccc(C(F)(F)F)cc2)n1 [Example 222, N-(3,4-dichlorophenyl)-6-(methyloxy)-7-[({2-[4-(trifluoromethyl)phenyl]-1,3-thiazol-4-yl}methyl)oxy]quinazolin-4-amine]	< 50 nM	50 to 1000 nM	–
COc1cc2c(Nc3ccc(Cl)c(Cl)c3)ncnc2cc1OCc1c(F)cccc1F [Example 233, N-(3,4-dichlorophenyl)-7-{[(2,6-difluorophenyl)methyl]oxy}-6-(methyloxy)quinazolin-4-amine]	< 50 nM	< 50 nM	–
CCCN1CCCOC(COc2cc3ncnc(Nc4ccc(Cl)c(Cl)c4)c3cc2OC)C1 (stereo not drawn) [Example 258, N-(3,4-dichlorophenyl)-6-(methyloxy)-7-{[(4-propyl-1,4-oxazepan-2-yl)methyl]oxy}quinazolin-4-amine]	< 50 nM	50 to 1000 nM	–
COc1cc2c(Nc3ccc(Cl)c(Cl)c3)ncnc2cc1OCC1CN(CC2CC2)CCCO1 (stereo not drawn) [Example 259, 7-({[4-(cyclopropylmethyl)-1,4-oxazepan-2-yl]methyl}oxy)-N-(3,4-dichlorophenyl)-6-(methyloxy)quinazolin-4-amine]	< 50 nM	50 to 1000 nM	–
COc1cc2c(Nc3ccc(Cl)c(Cl)c3)ncnc2cc1OCC1CN(C2CCCC2)CCO1 (stereo not drawn) [Example 269, 7-{[(4-cyclopentylmorpholin-2-yl)methyl]oxy}-N-(3,4-dichlorophenyl)-6-(methyloxy)quinazolin-4-amine]	< 50 nM	50 to 1000 nM	–
